For data set [1], the system named is CCND2 promoter. In words: CCND2 promoter-luciferase transactivation assay in NIH3T3 cells with or without c-maf. The data set is classed as cell-based, mouse. As for the experimental part: Using this assay, Lopac (n=1280), Prestwick (n=1120), and Spectrum (n=2000) libraries of drugs and natural compounds were screened. In a parallel MTS assay, the effect of each compound on 3T3 viability was determined, allowing exclusion of compounds that caused secondary suppression of CCND2 due to non-specific cytotoxicity. […] These included monensin, patulin, β-lapachone, camptothecin, dihydrogambogic acid, gentian violet, thapsigargin, brefeldin A, pristimerin, and kinetin riboside.
Full-length c-maf cDNA was subcloned into an IRES-GFP MIEV retroviral vector and introduced into NIH3T3 cells by infection. Stable clones expressing GFP and c-maf were selected by flow cytometry and immunoblotting, respectively. The promoter of human cyclin D2 (−894 to −4; Brooks et al., J. Biol. Chem., 271, 9090-9 (1996)), containing c-maf responsive element sequence (MARE), was cloned from DNA from HeLa cells and inserted into the pGLbasic firefly luciferase vector (Promega, Madison, Wis.) immediately upstream of the luciferase gene. This construct was co-transfected with pcDNA3 (containing a neomycin resistance gene) into both NIH3T3 wild type cells and NIH3T3 cells stably over-expressing c-maf-IRES-GFP. Cells stably expressing c-maf, GFP, and luciferase were selected.
NIH3T3 cells stably expressing c-maf and the CCND2 promoter driving luciferase (13,000 cells per well) were plated in 96-well plates by a Biomek FX liquid handler (Beckman, Fullerton, Calif.). After the cells had adhered, they were treated with aliquots of molecules from LOPAC (Sigma, St. Louis, Mo.), Prestwick (Prestwick Chemical Inc, Illkirch, France) or Spectrum (Microsource Discovery Systems, Gaylordsville, Conn.) libraries of off-patent drugs and chemicals at a final concentration of ˜5 μM and <0.1% DMSO. Cells were incubated with compounds at 37° C. for 16 hours.
Luciferase assay. Luciferase activity was assessed according to the manufacturer's instructions (Promega, Madison, Wis.). Briefly, the cell culture medium was removed using an EMBLA plate washer (Molecular Devices, X) and Glo Lysis buffer (Promega) was added by robot. After a 10-minute incubation, an equal volume of Bright-Glo Luciferase substrate (Promega) was added, and luminescence signal was detected with a 96-well Luminoskan luminescence plate reader (Thermo Labsystem, Waltham, Mass.) using a 5 second integration.
Studies of kinetin riboside using 3T3-D2-luc cells. To examine CCND2 suppression induced by kinetin riboside, the reporter cells were exposed to kinetin riboside in combination with other drugs (all purchased from Sigma, St. Loius, Mo.) that influence CCND2 transcription or inhibit nucleoside transport or phosphorylation. NIH3T3 cells expressing the CCND2 promoter driving luciferase were incubated with kinetin riboside or vehicle control +/− forskolin, 4-(3-butoxy-4-methoxybenzyl)imidazolidin-2-one (BMBI), cantharadin, S-(4-Nitrobenzyl)-6-thioinosine (NBTI), or A-134974, as specified at 5 μM concentration for 16 hours at 37° C. […] Forskolin is a cell-permeable diterpenoid that activates adenylate cyclase resulting in increased cAMP concentration. BMBI (Sigma B8279) is an inhibitor of cAMP phosphodiesterase that also causes accumulation of cAMP. Cantharadin (C7632) is an inhibitor of protein phosphatase 2A and, from the library screen, mediates induction of CCND2. NBTI (Sigma N2255) is a potent adenosine uptake inhibitor, and A-134974 (Sigma A2846) is a selective inhibitor of adenosine kinase.
In an optimized automated assay, NIH3T3 cells over-expressing c-maf and the human cyclin D2 promoter driving luc were plated in 96-well plates by robot and following adhesion were treated for 16 hours with compounds at a final concentration of ˜5 μM and <0.1% DMSO. As a control, cells were treated with buffer alone. […] Thus, each compound from the library was tested in at least two assays—luciferase for CCND2 activity and MTS for viability. The coefficient of variance (CV) of the assay was <10%.

The test system of data set [2] is cyclin D1, cyclin D2, cyclin D3. In words: Immunoblot of cyclin D proteins in HMCL. In kind it is cell-based, human. As to the method:
Immunoblotting. Cytosolic extracts were prepared from HMCL or purified patient CD138^+ myeloma cells following exposure to kinetin riboside. Cells were washed with cold PBS, resuspended in cold RIPA buffer (5×10^6 cells/100 μL) containing fresh protease and phosphatase inhibitors (Santa Cruz Biotechnology, Santa Cruz, Calif.) and incubated on ice for 30 minutes with gentle mixing. The supernatant was repossessed following high speed centrifugation, and protein concentrations were determined by the Bradford assay. Immunoblot assays were performed as described elsewhere (Krajewski et al., Anal. Biochem., 236:221-228 (1996)). Briefly, equal amounts of protein were separated by SDS-PAGE and transferred to a PVDF nitrocellulose membrane using a semi-dry apparatus. Membranes were blocked using 5% skim milk in Tris buffered saline and probed with monoclonal mouse anti-cyclin D1 (DCS-6, Biosource, Camarillo, Calif.), polyclonal rabbit anti-cyclin D2 (#2924, Cell Signalling Technology), monoclonal mouse anti-cyclin D3 (DCS-22, BioSource), polyclonal rabbit anti-c-Maf (M-153, Santa Cruz), polyclonal rabbit anti-Cleaved Caspase 9 (Asp315) (Cell Signaling Technology), monoclonal mouse anti-β-actin (Cell Signaling Technology) and/or monoclonal anti-a-tubulin (B-7)(Santa Cruz Biotechnology, Santa Cruz, Calif.). Membrane proteins were visualized using HRP-conjugated species-specific secondary antibodies (Cell Signaling Technology) and enhanced chemiluminescence (Pierce, Rockford, Ill.).

For data set [3] the following is noted: mouse, in vivo. From the text:
Kinetin riboside toxicity in mice. In vivo toxicity studies of synthetic kinetin riboside were initiated in balc/c mice. […] The actual volume of distribution and the half-life of kinetin riboside in vivo are at present unknown and future schedules of administration may require adjustment to account for these.

“Also recorded” adds a separate entry of the source. Like-named read-outs stand apart in the source and are kept apart here.

As to `OC[C@H]1O[C@@H](n2cnc3c(NCc4ccco4)ncnc32)[C@H](O)[C@@H]1O` [kinetin riboside, N6-Furfuryladenosine], the “time course of suppression of CCND2-driven luciferase” value in data set [1] (NIH3T3) is “rapid suppression of CCND2 transactivation”. In addition, the “suppression of CCND2 promoter in absence or presence of c-maf” value in data set [1] (NIH3T3 CCND2-luc with or without c-maf) is reported as “c-maf independent specific suppression of the CCND2 promoter”. In addition, in data set [1] (co-incubation, 5 μM, 16 hours), the “effect on BMBI-induced CCND2 transactivation” value was “effectively blocked”, the “effect on Forskolin-induced CCND2 transactivation” value is recorded as “blocked” and the “effect on cantharadin-induced CCND2 transactivation” value is “abolished”. Moreover, the “identified as putative inhibitor of CCND2 transactivation (screen hit)” value in data set [1] (~5 μM, 16 hours, hit = 50% or more reduction in luciferase relative to cell viability) is “putative CCND2 inhibitors; also recorded: putative suppressors of CCND2”. The “lag between exposure and cyclin D1 or D2 suppression” value in data set [2] lay within 4 to 6 h. In data set [2] (H929, 10 μM), the “time to suppression of cyclin D1 and D2 proteins” value was no more than 6 h; the “time until cyclin D3 levels significantly affected” value was no less than 28 h. Further, the “cyclin D3 protein levels” value in data set [2] (HMCL, 10 μM, 16 hours) is “did not influence cyclin D3 levels”. The “cyclin D1 and D2 protein levels in Kms11” value in data set [2] (Kms11) is given as “significant suppression only of cyclin D2 but not D1”. Also, the “cyclin D1 protein level in U266” value in data set [2] (U266, 10 μM, 16 hours) is given as “suppression of cyclin D1”. Besides, the “cyclin D1 and/or D2 protein levels” value in data set [2] (all HMCL tested, 10 μM, 16 hours) was “significant suppression”. Moreover, in data set [3] (BALB/c (printed as "balc/c"), 25 mg/kg), the “final concentration equated from a dose of 25 mg/kg” value is on record as “about 60 μM”. Further, the “duration of hypoactivity after treatment” value in data set [3] (BALB/c) lay within 15 to 30 min. Also, the “maximum tolerated single dose (MTDs)” value in data set [3] (BALB/c, ip) was roughly 100 mg/kg. For the same molecule, the “maximum tolerated single dose (MTDs)” value in data set [3] (BALB/c, iv) is on record as “about 25 mg/kg”. Besides, the “tolerability of multi-dose regimen” value in data set [3] was “well tolerated”.

These data come from patent US8822440B2, “Inhibiting cyclin D polypeptides” (Mayo Foundation for Medical Education and Research, priority 2006, dated 2014).
